Measured values taken from paper PMC10828645 (Heliyon, 2024).
Read-outs that look alike come from different tables or passages of the source.

How the values were obtained:
[1] = cited from earlier work
[2] = marketed drugs; ref [1],[7]; cited from earlier work
[3] = type: in vivo, CD-1 mice; settings: CD-1, mouse, brain and plasma, intraperitoneal
[4] = Equilibrium dialysis, unbound fraction in plasma; type: in vitro ADME, CD-1 mice; settings: CD-1, mouse, pH 7.4
[5] = Equilibrium dialysis, unbound fraction in brain homogenate; type: in vitro ADME, CD-1 mice; settings: CD-1, mouse, brain homogenate (10 % w/v), pH 7.4
[6] = Ionized fraction at pH 7.4 calculated from pKa; settings: for Ionized fraction fcation: pH 7.4, Eq. (5), from literature basic pKa; for Ionized fraction fanion: pH 7.4, Eq. (6), from literature acidic pKa
[7] = ref [1]; cited from earlier work
[8] = marketed drugs, external validation, ref [1],[7]

| SMILES | Kp,brain ([1]; mouse, in vivo) | Kp,uu,brain ([1]; mouse, in vivo) | fu,b [2] | Ionized fraction fcation [6] | Basic_pKa [7] | other results |
| --- | --- | --- | --- | --- | --- | --- |
| Nc1nnc(-c2cccc(Cl)c2Cl)c(N)n1 [Lamotrigine] | 1.10 | 0.64 | 0.220 | – | – | – |
| CCOc1ccc(NC(C)=O)cc1 [Phenacetin] | – | – | – | – | – | Kp uu at 2 h [3]: 0.55; fraction unbound at 5 h, 1 μM [4]: 0.701; fraction unbound at 5 h, 1 μM [5]: 0.442 |
| C#CCN(C)[C@H](C)Cc1ccccc1 [Selegiline] | 3.70 | 1.30 | 0.056 | 0.5573 | 7.5 | – |
| CNCCC=C1c2ccccc2CCc2ccccc21 [Nortriptyline] | 11.0 | 1.63 | 0.005 | 0.9980 | 10.1 | – |
| OCCOCCN1CCN(C(c2ccccc2)c2ccc(Cl)cc2)CC1 (stereo not shown) [Hydroxyzine] | 7.70 | 1.51 | 0.010 | 0.3339 | 7.1 | – |
| CCN(CC)CCNC(=O)c1cc(Cl)c(N)cc1OC [Metoclopramide] | 1.20 | 0.52 | 0.310 | 0.9937 | – | Ionized fraction fanion [6]: 0.0001 |
| CCCC(C)(COC(N)=O)COC(=O)NC(C)C (stereo not shown) [Carisoprodol] | – | – | 0.202 | – | – | Ionized fraction fanion [6]: 0.0003; Kp,brain [1, 8]: 0.66; Kp,uu,brain [1, 8]: 0.34; Acidic_pKa [7]: 11.0 |
| Fc1ccc([C@@H]2CCNC[C@H]2COc2ccc3c(c2)OCO3)cc1 [Paroxetine] | 3.30 | 0.86 | 0.004 | 0.9987 | – | – |
| CN1CC[C@]23c4c5ccc(O)c4O[C@H]2[C@@H](O)C=C[C@H]3[C@H]1C5 [Morphine] | – | – | – | 0.8882 | – | Ionized fraction fanion [6]: 0.0038 |
| CN[C@H]1CC[C@@H](c2ccc(Cl)c(Cl)c2)c2ccccc21 [Sertraline] | – | – | – | 0.9921 | 9.5 | – |
| COCCCC/C(=N\OCCN)c1ccc(C(F)(F)F)cc1 [Fluvoxamine] | – | – | – | 0.9901 | – | – |
| C=C[C@H]1C[N@@]2CC[C@H]1C[C@@H]2[C@@H](O)c1ccnc2ccc(OC)cc12 [Quinidine] | – | – | – | – | – | Kp uu at 2 h [3]: 0.05; fraction unbound at 5 h, 1 μM [4]: 0.286 |
| CCN1CCCC1CNC(=O)c1cc(S(N)(=O)=O)ccc1OC (stereo not shown) [Sulpiride] | 0.08 | 0.06 | – | 0.9693 | 8.9 | Ionized fraction fanion [6]: 0.0017; Acidic_pKa [7]: 10.2 |
| O=C1CC2(CCCC2)CC(=O)N1CCCCN1CCN(c2ncccn2)CC1 [Buspirone] | – | – | – | 0.5573 | – | – |
| CC(C)NCC(O)COc1cccc2ccccc12 (stereo not shown) [Propranolol] | – | – | – | – | – | Kp uu at 2 h [3]: 3.08; fraction unbound at 5 h, 1 μM [5]: 0.022 |
| NC(=O)N1c2ccccc2C=Cc2ccccc21 [Carbamazepine] | 0.76 | 0.27 | – | – | – | Ionized fraction fanion [6]: 0.0003; Acidic_pKa [7]: 10.9 |
| COc1ccc2c3c1O[C@H]1C(=O)CC[C@H]4[C@@H](C2)N(C)CC[C@]314 [Hydrocodone] | 2.10 | 1.96 | 0.550 | 0.9264 | 8.5 | – |

| SMILES | Kp,brain ([1]; mouse, in vivo) | Kp,uu,brain ([1]; mouse, in vivo) | fu,b [2] | Ionized fraction fcation [6] | Basic_pKa [7] | other results |
| --- | --- | --- | --- | --- | --- | --- |
| CCCC(C)(COC(N)=O)COC(N)=O [Meprobamate] | – | – | 0.760 | – | – | Ionized fraction fanion [6]: 0.0001; Kp,uu,brain [1, 8]: 0.42; Acidic_pKa [7]: 11.3 |
| O=C1NC(=O)C(c2ccccc2)(c2ccccc2)N1 [Phenytoin] | – | – | – | – | – | Ionized fraction fanion [6]: 0.1118; Kp,brain [1, 8]: 0.63; Kp,uu,brain [1, 8]: 0.28; Acidic_pKa [7]: 8.30 |
| CCCC(C)C1(CC)C(=O)NC(=S)NC1=O (stereo not shown) [Thiopental] | – | – | 0.146 | – | – | Ionized fraction fanion [6]: 0.2847; Acidic_pKa [7]: 7.80 |
| Cc1nc2n(c(=O)c1CCN1CCC(c3noc4cc(F)ccc34)CC1)CCCC2 [Risperidone] | – | – | – | 0.9091 | 8.4 | Kp,uu,brain [1, 8]: 0.26 |
| CN1CCN(C2=Nc3cc(Cl)ccc3Nc3ccccc32)CC1 [Clozapine] | – | – | 0.009 | 0.3339 | – | Kp,brain [1, 8]: 4.10; Kp,uu,brain [1, 8]: 1.01 |
| CNCCC(Oc1ccc(C(F)(F)F)cc1)c1ccccc1 (stereo not shown) [Fluoxetine] | – | – | – | 0.9980 | – | Kp,brain [1, 8]: 12.0; Kp,uu,brain [1, 8]: 0.89 |
| Cc1ccc(-c2nc3ccc(C)cn3c2CC(=O)N(C)C)cc1 [Zolpidem] | 0.29 | 0.24 | 0.200 | 0.2403 | 6.9 | – |
| COc1ccc(C(CN(C)C)C2(O)CCCCC2)cc1 (stereo not shown) [Venlafaxine] | – | – | 0.210 | 0.9876 | 9.3 | Kp,brain [1, 8]: 4.20; Kp,uu,brain [1, 8]: 0.98 |
| O=c1n(CCCN2CCN(c3cccc(Cl)c3)CC2)nc2ccccn12 [Trazodone] | – | 0.56 | 0.047 | 0.3869 | 7.2 | Kp,brain [1, 8]: 0.61 |
| CN(C)CCCC1(c2ccc(F)cc2)OCc2cc(C#N)ccc21 (stereo not shown) [Citalopram] | 5.10 | 0.68 | 0.031 | 0.9937 | 9.6 | – |
| COC(=O)C(c1ccccc1)C1CCCCN1 (stereo not shown) [Methylphenidate] | 12.0 | 3.43 | 0.220 | 0.9994 | 10.6 | – |
| O=C(CCCN1CCC(O)(c2ccc(Cl)cc2)CC1)c1ccc(F)cc1 [Haloperidol] | – | – | 0.007 | 0.8882 | – | Kp,brain [1, 8]: 13.0; Kp,uu,brain [1, 8]: 1.06 |
| CC(=O)CC(c1ccccc1)c1c(O)c2ccccc2oc1=O (stereo not shown) [Warfarin] | – | – | – | – | – | Kp uu at 2 h [3]: 0.19; fraction unbound at 5 h, 1 μM [4]: 0.097; fraction unbound at 5 h, 1 μM [5]: 0.281 |
| CN(C)CCCN1c2ccccc2Sc2ccc(Cl)cc21 [Chlorpromazine] | – | – | – | 0.9901 | – | Kp,brain [1, 8]: 23.0; Kp,uu,brain [1, 8]: 0.65 |
| CN(C)CCC=C1c2ccccc2C=Cc2ccccc21 [Cyclobenzaprine] | 12.0 | 1.62 | 0.007 | 0.9844 | 9.2 | – |
| Cc1ncc2n1-c1ccc(Cl)cc1C(c1ccccc1F)=NC2 [Midazolam] | – | – | 0.027 | – | – | Kp,uu,brain [1, 8]: 0.14 |
| CCC(=O)O[C@](Cc1ccccc1)(c1ccccc1)[C@H](C)CN(C)C [Propoxyphene] | 2.90 | 0.85 | 0.033 | 0.9844 | – | – |
